The record followed here is patent US20240174744A1, “METHODS OF TREATMENT USING PROTEIN BINDERS TO IRHOM2 EPITOPES” (SCIRHOM GMBH, priority 2021, published 2024).

This assay relates to LPS-induced release of TNFα from PBMCs from patients suffering from rheumatoid arthritis. Briefly: ELISA-based TNFα release assay, PBMCs from RA-patients. The format is cell-based. The settings on record: Homo sapiens, PBMC; chimeric antibodies (CHO) 1 μg/ml; Batimastat 10 μM; LPS 1 ng/ml, 1.5 hours. Here is the method: In contrast to Example 32, where the inhibitory effects of the antibodies of the present disclosure on LPS-induced release of endogenous TNFα from primary human material obtained from healthy donors using peripheral blood mononuclear cells (PBMCs) were tested, this analysis was conducted to analyze the inhibitory effects of the antibodies of the present disclosure on LPS-induced release of endogenous TNFα from primary human material obtained from patients suffering from rheumatoid arthritis (RA-patients).
In brief, on day 1, Nunc black MaxiSorp® 96-well plates (Thermo Fisher Scientific, USA) were coated overnight with 100 μl per well of mouse anti-human TNFα capture antibody (provided as part of the DuoSet ELISA kit) at 4 μg/ml TBS at 4° C. On day 2, the capture antibody solution was removed and MaxiSorp® plates were blocked with 300 μl per well of TBS, 1% BSA at room temperature for 3 hours. […] Using an infinite M1000 (Tecan Group, Switzerland) microplate reader, the fluorescence of each well was collected at an excitation wavelength of 435 nm and an emission wavelength of 555 nm.
Background: In an ELISA, binding on a coated surface is turned into a signal by an enzyme label.

By inhibition is commonly meant the change of the read-out against control, counted positive when it falls. A higher inhibition goes with a response far below the control.

`CNC(=O)[C@H](Cc1ccccc1)NC(=O)[C@H](CC(C)C)[C@H](CSc1cccs1)C(=O)NO` [Batimastat]: the inhibition at 10 µM came to 99.9%.
